Patent US8969363B2, “Heterocyclic compounds and uses thereof” (Infinity Pharmaceuticals, Inc., priority 2011, dated 2015)

What was measured:
PI3Kα = biological target: T1, PI3Kα (Homo sapiens, UniProt P42336); test: PI3 Kinase HTRF assay, PI3Kα; format: biochemical; settings: 10 μM PIP2, 10 μM ATP; 'Greater than 10 μM' and 'Greater than 1 μM to 10 μM'; read-out: PI3K α IC50
T1 construct: purchased Millipore Corporation 14-602-K
Description: (§1) A PI3-Kinase HTRF® assay kit (cat No. 33-016) purchased from Millipore Corporation was used to screen compounds provided herein. This assay used specific, high affinity binding of the GRP1 pleckstrin homology (PH) domain to PIP3, the product of a Class 1A or 1B PI3 Kinase acting on its physiological substrate PIP2. During the detection phase of the assay, a complex was generated between the GST-tagged PH domain and biotinylated short chain PIP3. The biotinylated PIP3 and the GST-tagged PH domain recruited fluorophores (Streptavidin-Allophycocyanin and Europium-labeled anti-GST respectively) to form the fluorescence resonance energy transfer (FRET) architecture, generating a stable time-resolved FRET signal. The FRET complex was disrupted in a competitive manner by non-biotinylated PIP3, a product formed in the PI3 Kinase assay.
(§2) PI3 Kinase α, β, γ and δ activity was assayed using the PI3 Kinase HTRF® assay kit (catalogue No. 33-016) purchased from Millipore Corporation. Purified recombinant PI3Kα (catalogue No. 14-602-K), PI3Kβ (catalogue No. 14-603-K), PI3Kγ (catalogue No. 14-558-K) and PI3Kδ (catalogue No. 14-604-K) were obtained from Millipore Corporation. Purified recombinant PI3K enzyme was used to catalyze the phosphorylation of phosphatidylinositol 4,5-bisphosphate (PIP2 at 10 μM) to phosphatidylinositol 3,4,5-trisphosphate (PIP3) in the presence of 10 μM ATP. The assay was carried out in 384-well format and detected using a Perkin Elmer EnVision Xcite Multilabel Reader. Emission ratios were converted into percent inhibitions and imported into GraphPad Prism software. The concentration necessary to achieve inhibition of enzyme activity by 50% (IC50) was calculated using concentrations ranging from 20 μM to 0.1 nM (12-point curve). IC50 values were determined using a nonlinear regression model available in GraphPad Prism 5. […]

PI3Kβ = test: PI3 Kinase HTRF assay, PI3Kβ; format: biochemical, human; settings: 10 μM PIP2, 10 μM ATP; 'Greater than 10 μM' and 'Greater than 1 μM to 10 μM'; read-out: PI3K β IC50
Chain of PI3Kβ (Q8BTI9 whole entry): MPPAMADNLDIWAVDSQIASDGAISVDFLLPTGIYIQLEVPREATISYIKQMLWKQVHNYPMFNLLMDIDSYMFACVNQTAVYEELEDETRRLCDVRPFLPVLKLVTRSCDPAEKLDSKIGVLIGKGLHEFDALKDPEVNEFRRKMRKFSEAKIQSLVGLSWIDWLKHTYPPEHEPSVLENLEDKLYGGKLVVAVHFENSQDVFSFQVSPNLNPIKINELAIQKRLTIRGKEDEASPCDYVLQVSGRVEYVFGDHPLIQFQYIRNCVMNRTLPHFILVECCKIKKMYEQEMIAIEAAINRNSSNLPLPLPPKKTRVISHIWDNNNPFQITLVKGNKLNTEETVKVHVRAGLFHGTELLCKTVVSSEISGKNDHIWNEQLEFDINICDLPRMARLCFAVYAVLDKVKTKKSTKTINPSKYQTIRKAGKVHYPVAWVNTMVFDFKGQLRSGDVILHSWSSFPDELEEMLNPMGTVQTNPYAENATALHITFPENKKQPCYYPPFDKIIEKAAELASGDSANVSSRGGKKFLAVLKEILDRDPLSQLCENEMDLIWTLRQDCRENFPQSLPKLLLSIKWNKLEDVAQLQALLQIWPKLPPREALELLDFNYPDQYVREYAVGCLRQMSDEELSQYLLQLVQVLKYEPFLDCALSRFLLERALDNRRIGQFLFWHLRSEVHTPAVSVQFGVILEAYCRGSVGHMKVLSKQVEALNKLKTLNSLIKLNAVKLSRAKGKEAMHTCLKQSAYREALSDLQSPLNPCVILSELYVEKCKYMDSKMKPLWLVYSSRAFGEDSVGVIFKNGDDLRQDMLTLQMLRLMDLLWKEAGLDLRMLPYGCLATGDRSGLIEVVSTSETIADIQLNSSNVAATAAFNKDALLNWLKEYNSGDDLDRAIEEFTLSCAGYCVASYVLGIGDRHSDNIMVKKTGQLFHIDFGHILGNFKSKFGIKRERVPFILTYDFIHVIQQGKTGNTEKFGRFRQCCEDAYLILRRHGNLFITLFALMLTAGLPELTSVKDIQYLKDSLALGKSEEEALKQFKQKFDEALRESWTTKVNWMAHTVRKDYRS
Description: as §1
as §2, with “Purified recombinant PI3Kα (catalogue No. 14-602-K), PI3Kβ (catalogue No. 14-603-K), PI3Kγ (catalogue No. 14-558-K) and PI3Kδ (catalogue No. 14-604-K) were obtained from Millipore Corporation.” left out, “The concentration necessary to achieve inhibition of enzyme activity by 50% (IC50) was calculated using concentrations ranging from 20 μM to 0.1 nM (12-point curve).” left out

Balb/c splenic B cells = test: B cell activation and proliferation assay (Alamar Blue); format: cell-based; settings: Mus musculus
Experimental: The ability of one or more subject compounds to inhibit B cell activation and proliferation is determined according to standard procedures known in the art. For example, an in vitro cellular proliferation assay is established that measures the metabolic activity of live cells. The assay is performed in a 96 well microtiter plate using Alamar Blue reduction. Balb/c splenic B cells are purified over a Ficoll-Paque™ PLUS gradient followed by magnetic cell separation using a MACS B cell Isolation Kit (Miletenyi). Cells are plated in 90 μl at 50,000 cells/well in B Cell Media (RPMI+10% FBS+Penn/Strep+50 μM bME+5 mM HEPES). A compound provided herein is diluted in B Cell Media and added in a 10 μl volume. Plates are incubated for 30 min at 37° C. and 5% CO2 (0.2% DMSO final concentration). A 50 μl B cell stimulation cocktail is then added containing either 10 μg/ml LPS or 5 μg/ml F(ab′)2 Donkey anti-mouse […] plus 2 ng/ml recombinant mouse IL4 in B Cell Media. Plates are incubated for 72 hours at 37° C. and 5% CO2. A volume of 15 μL of Alamar Blue reagent is added to each well and plates are incubated for 5 hours at 37° C. and 5% CO2. Alamar Blue fluoresce is read at 560Ex/590Em, and IC50 or EC50 values are calculated using GraphPad Prism 5.

PI3Kγ = biological target: T2, PI3Kγ (Homo sapiens, UniProt P48736); test: PI3 Kinase HTRF assay, PI3Kγ; format: biochemical; settings: 10 μM PIP2, 10 μM ATP; 'Greater than 10 μM' and 'Greater than 1 μM to 10 μM'; read-out: PI3K γ IC50
T2 construct: purchased Millipore Corporation 14-558-K
T2 sequence (P48736 whole entry): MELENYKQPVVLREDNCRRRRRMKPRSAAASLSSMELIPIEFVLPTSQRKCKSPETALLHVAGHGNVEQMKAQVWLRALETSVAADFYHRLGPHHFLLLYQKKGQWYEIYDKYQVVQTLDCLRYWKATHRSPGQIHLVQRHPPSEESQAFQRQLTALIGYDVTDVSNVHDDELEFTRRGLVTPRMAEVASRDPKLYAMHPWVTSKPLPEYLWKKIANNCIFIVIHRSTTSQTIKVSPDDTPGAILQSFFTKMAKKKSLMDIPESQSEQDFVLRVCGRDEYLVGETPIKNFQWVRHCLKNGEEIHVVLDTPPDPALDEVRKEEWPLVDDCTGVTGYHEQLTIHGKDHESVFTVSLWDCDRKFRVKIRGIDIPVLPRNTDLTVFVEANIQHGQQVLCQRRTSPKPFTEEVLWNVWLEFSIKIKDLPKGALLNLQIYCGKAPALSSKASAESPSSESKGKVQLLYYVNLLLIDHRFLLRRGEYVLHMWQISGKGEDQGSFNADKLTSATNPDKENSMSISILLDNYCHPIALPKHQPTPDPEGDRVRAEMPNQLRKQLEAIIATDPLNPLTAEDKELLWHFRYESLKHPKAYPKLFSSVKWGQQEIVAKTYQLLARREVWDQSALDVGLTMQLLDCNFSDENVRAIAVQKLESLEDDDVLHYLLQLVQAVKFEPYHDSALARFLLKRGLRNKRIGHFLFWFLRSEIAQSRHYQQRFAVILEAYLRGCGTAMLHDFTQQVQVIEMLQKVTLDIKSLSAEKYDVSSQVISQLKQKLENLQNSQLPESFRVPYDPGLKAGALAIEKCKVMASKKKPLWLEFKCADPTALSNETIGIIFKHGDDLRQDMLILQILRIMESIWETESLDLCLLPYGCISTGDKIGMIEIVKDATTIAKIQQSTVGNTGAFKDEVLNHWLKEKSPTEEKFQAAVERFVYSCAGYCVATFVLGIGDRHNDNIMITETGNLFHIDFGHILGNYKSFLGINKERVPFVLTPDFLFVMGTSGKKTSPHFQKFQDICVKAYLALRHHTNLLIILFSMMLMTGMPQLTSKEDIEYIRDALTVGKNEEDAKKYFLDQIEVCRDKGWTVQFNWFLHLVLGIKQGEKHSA
Description: as §1, §2

T1 sequence (P42336 whole entry): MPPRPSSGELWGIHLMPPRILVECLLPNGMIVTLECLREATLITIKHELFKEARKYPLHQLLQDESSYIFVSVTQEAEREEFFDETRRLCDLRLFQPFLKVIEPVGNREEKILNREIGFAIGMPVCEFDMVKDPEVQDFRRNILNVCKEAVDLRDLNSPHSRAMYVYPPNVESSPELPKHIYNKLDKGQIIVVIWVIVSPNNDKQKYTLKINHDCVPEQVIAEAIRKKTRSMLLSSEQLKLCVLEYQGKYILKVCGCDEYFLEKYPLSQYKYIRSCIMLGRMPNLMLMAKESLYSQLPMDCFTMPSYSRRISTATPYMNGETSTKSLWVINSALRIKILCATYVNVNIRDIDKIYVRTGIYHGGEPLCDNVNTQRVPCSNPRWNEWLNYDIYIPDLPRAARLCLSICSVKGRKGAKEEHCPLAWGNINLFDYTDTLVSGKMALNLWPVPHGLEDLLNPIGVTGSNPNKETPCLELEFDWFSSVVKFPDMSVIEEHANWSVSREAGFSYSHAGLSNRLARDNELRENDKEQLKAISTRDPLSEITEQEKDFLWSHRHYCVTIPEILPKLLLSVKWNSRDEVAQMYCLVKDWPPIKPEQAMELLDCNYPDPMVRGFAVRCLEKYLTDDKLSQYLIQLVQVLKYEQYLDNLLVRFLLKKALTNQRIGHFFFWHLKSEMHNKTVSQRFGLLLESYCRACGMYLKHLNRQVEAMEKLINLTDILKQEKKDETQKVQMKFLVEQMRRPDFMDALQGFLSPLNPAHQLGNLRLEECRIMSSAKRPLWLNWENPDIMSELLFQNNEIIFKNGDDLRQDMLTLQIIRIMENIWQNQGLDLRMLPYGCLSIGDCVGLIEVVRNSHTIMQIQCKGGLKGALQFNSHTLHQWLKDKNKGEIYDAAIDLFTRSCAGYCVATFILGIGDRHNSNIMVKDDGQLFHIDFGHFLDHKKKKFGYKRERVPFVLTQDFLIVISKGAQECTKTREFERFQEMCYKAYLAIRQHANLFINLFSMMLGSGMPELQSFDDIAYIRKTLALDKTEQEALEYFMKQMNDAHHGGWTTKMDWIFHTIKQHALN
T1 sequence (P27986 whole entry partner): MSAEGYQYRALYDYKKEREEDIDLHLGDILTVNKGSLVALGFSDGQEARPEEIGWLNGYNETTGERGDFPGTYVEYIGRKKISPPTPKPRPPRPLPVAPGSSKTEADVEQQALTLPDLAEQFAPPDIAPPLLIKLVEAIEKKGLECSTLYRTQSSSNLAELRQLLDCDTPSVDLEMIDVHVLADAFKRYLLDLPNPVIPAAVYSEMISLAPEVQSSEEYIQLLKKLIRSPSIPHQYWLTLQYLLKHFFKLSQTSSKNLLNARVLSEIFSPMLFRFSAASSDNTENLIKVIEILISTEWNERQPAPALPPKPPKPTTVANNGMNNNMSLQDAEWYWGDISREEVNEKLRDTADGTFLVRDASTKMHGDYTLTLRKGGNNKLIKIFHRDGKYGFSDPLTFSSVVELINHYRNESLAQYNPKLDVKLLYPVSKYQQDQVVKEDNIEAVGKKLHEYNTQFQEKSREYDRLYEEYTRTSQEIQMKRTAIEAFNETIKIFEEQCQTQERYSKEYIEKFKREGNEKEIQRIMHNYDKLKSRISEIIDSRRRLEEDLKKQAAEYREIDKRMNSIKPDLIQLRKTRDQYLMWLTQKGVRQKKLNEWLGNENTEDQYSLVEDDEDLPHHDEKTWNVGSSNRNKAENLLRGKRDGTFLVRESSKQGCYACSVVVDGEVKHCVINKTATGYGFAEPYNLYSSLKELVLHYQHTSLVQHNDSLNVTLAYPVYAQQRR

IC50 (PI3Kα)	IC50 (PI3Kβ)	IC50 (PI3Kγ)	Structure (SMILES)	EC50 (Balb/c splenic B cells; 'Less than 100 nM')	EC50 (Balb/c splenic B cells; 1 μM to 100 nM)
1000 to 10000 nM	1000 to 10000 nM	–	C[C@H](Nc1ncnc2cccnc12)c1cc2cccc(C(F)(F)F)c2c(=O)n1-c1cccc(F)c1 [III-12]	< 100 nM	–
–	> 10000 nM	1000 to 10000 nM	C[C@H](Nc1ncnc2cccnc12)c1cc2scc(C(F)(F)F)c2c(=O)n1-c1ccccc1 [III-41]	< 100 nM	–
–	> 10000 nM	1000 to 10000 nM	C[C@H](Nc1c(C#N)cnc2cccnc12)c1cc2cccc(C(F)(F)F)c2c(=O)n1-c1ccccc1 [III-37]	–	–
1000 to 10000 nM	1000 to 10000 nM	–	C[C@H](Nc1ccnc2ccnn12)c1cc2cccc(Cl)c2c(=O)n1-c1cccc(F)c1 [II-4]	< 100 nM	–
1000 to 10000 nM	> 10000 nM	–	C[C@H](Nc1ccnn2ccnc12)c1cc2cccc(-c3cnn(C)c3)c2c(=O)n1-c1cccc(F)c1 [II-17]	< 100 nM	–
1000 to 10000 nM	> 10000 nM	–	C[C@H](Nc1ccnc2ccnn12)c1cc2cccc(-c3cnn(C)c3)c2c(=O)n1-c1cccc(F)c1 [II-9]	< 100 nM	–
–	> 10000 nM	1000 to 10000 nM	Cc1nc2c(N[C@@H](C)c3cc4cccc(C(F)(F)F)c4c(=O)n3-c3ccccc3)ncnc2s1 [III-26]	–	–
1000 to 10000 nM	1000 to 10000 nM	–	C[C@H](Nc1ccnn2ccnc12)c1cc2cccc(C(F)(F)F)c2c(=O)n1-c1cccc(F)c1 [III-15]	< 100 nM	–
–	> 10000 nM	1000 to 10000 nM	COc1nc(N[C@@H](C)c2cc3cccc(C(F)(F)F)c3c(=O)n2-c2cccc(F)c2)c2ncccc2n1 [III-43]	–	–
1000 to 10000 nM	1000 to 10000 nM	1000 to 10000 nM	C[C@H](Nc1ccnc2ccnn12)c1cc2cccc(-c3cnn(C)c3)c2c(=O)n1C1CC1 [II-8]	–	–
–	–	1000 to 10000 nM	C[C@H](Nc1ncnc2[nH]cnc12)c1cc2scc(C(F)(F)F)c2c(=O)n1-c1ccccc1 [III-40]	–	–
1000 to 10000 nM	1000 to 10000 nM	–	C[C@H](Nc1ccnn2ccnc12)c1cc2cccc(-c3cnn(C)c3)c2c(=O)n1C1CC1 [II-45]	< 100 nM	–
> 10000 nM	1000 to 10000 nM	1000 to 10000 nM	C[C@H](Nc1ncnc2ccnn12)c1cc2cccc(Cl)c2c(C(=O)N2CCOCC2)n1 [II-44]	–	–
–	> 10000 nM	1000 to 10000 nM	Cc1cn2nccc(N[C@@H](C)c3cc4cccc(C(F)(F)F)c4c(=O)n3-c3ccccc3)c2n1 [III-29]	–	–
1000 to 10000 nM	1000 to 10000 nM	–	C[C@H](Nc1ccnc2ccnn12)c1cc2cccc(-c3cnn(C)c3)c2c(=O)n1-c1ccccc1 [II-5, (S)-8-(1-methyl-1H-pyrazol-4-yl)-2-phenyl-3-(1-(pyrazolo[1,5-a]pyrimidin-7-ylamino)ethyl)isoquinolin-1(2H)-one]	< 100 nM	–
–	> 10000 nM	1000 to 10000 nM	C[C@H](Nc1ncnc(N)n1)c1cc2cccc(Cl)c2c(=O)n1-c1cccc(F)c1 [IV-2]	< 100 nM	–
1000 to 10000 nM	1000 to 10000 nM	–	C[C@H](Nc1ccnn2ccnc12)c1cc2cccc(-c3cnn(C)c3)c2c(=O)n1-c1ccccc1 [II-18]	< 100 nM	–

More lines, now with the values behind:

Structure (SMILES)	IC50 (PI3Kα)	IC50 (PI3Kβ)	IC50 (PI3Kγ)	EC50 (Balb/c splenic B cells; 'Less than 100 nM')	EC50 (Balb/c splenic B cells; 1 μM to 100 nM)
C[C@H](Nc1nc(N)nc2cccnc12)c1cc2cccc(-c3cncnc3)c2c(=O)n1-c1ccccc1 [Compound I-74]	1000 to 10000 nM	1000 to 10000 nM	–	< 100 nM	–
Cc1ncc(-c2cccc3cc([C@H](C)Nc4nc(N)nc5cccnc45)n(-c4cccc(F)c4)c(=O)c23)cn1 [Compound I-84]	1000 to 10000 nM	> 10000 nM	–	< 100 nM	–
C[C@H](Nc1nc(N)nc2cccnc12)c1cc2cccc(-c3ccnnc3)c2c(=O)n1-c1cccc(F)c1 [Compound I-80]	1000 to 10000 nM	> 10000 nM	–	< 100 nM	–
C[C@H](Nc1ncnc2cccnc12)c1cc2cccc(-c3cnn(C)c3)c2c(=O)n1C1CC1 [Compound I-24]	1000 to 10000 nM	1000 to 10000 nM	–	< 100 nM	–
C[C@H](Nc1ccnc2cccnc12)c1cc2cccc(Cl)c2c(=O)n1-c1cccc(F)c1 [Compound I-50]	1000 to 10000 nM	1000 to 10000 nM	–	< 100 nM	–
C[C@H](Nc1ncnc2cccnc12)c1cc2c(F)cccc2c(=O)n1-c1ccccc1 [Compound I-4]	1000 to 10000 nM	1000 to 10000 nM	–	< 100 nM	–
C[C@H](Nc1nc(N)nc2cccnc12)c1cc2cccc(-c3cnn(C)c3)c2c(=O)n1-c1cccc(F)c1 [Compound I-38]	1000 to 10000 nM	> 10000 nM	–	< 100 nM	–
C[C@H](Nc1ncnc2cccnc12)c1cc2cccc(-c3ccc(N)nc3)c2c(=O)n1-c1ccccc1 [Compound I-43]	1000 to 10000 nM	> 10000 nM	–	< 100 nM	–
C[C@H](Nc1ncnc2cccnc12)c1cc2ccc(F)cc2c(=O)n1-c1ccccc1 [Compound I-18]	1000 to 10000 nM	1000 to 10000 nM	–	< 100 nM	–
Cc1cccc2cc([C@H](C)Nc3ncnc4cccnc34)n(-c3cccc(F)c3)c(=O)c12 [Compound I-70]	1000 to 10000 nM	1000 to 10000 nM	–	< 100 nM	–
Cc1nsc2cc(C(C)Nc3ncnc4cccnc34)n(-c3ccccc3)c(=O)c12 (centres unmarked) [Compound I-27]	–	> 10000 nM	1000 to 10000 nM	–	100 to 1000 nM
C[C@H](Nc1cc(Cl)nn2ccnc12)c1cc2cccc(C(F)(F)F)c2c(=O)n1-c1cccc(F)c1 [III-14]	–	> 10000 nM	1000 to 10000 nM	–	–
C[C@H](Nc1c(C#N)cnc2cccnc12)c1cc2cccc(Cl)c2c(=O)n1-c1cccc(F)c1 [Compound I-54]	–	> 10000 nM	1000 to 10000 nM	–	–
C[C@H](Nc1ncnc2cccnc12)c1cc2cccc(-c3cnn(C)c3)c2c(=O)n1-c1cccc(F)c1 [Compound I-25]	1000 to 10000 nM	> 10000 nM	–	< 100 nM	–
C[C@H](Nc1c(C#N)cnc2cccnc12)c1cc2cccc(-c3cnn(C)c3)c2c(=O)n1-c1ccccc1 [Compound I-55]	–	> 10000 nM	1000 to 10000 nM	–	–
COc1ccc(-c2cccc3cc([C@H](C)Nc4ncnc5cccnc45)n(-c4ccccc4)c(=O)c23)cn1 [Compound I-48]	1000 to 10000 nM	> 10000 nM	–	< 100 nM	–
C[C@H](Nc1ccnc2cccnc12)c1cc2cccc(-c3cnn(C)c3)c2c(=O)n1-c1ccccc1 [Compound I-51]	1000 to 10000 nM	1000 to 10000 nM	–	< 100 nM	–
C[C@H](Nc1c(C#N)cnc2cccnc12)c1cc2cccc(Cl)c2c(=O)n1-c1ccccc1 [Compound I-53]	–	> 10000 nM	1000 to 10000 nM	–	–
COc1ncc(-c2cccc3cc([C@H](C)Nc4ncnc5cccnc45)n(-c4cccc(F)c4)c(=O)c23)cn1 [Compound I-73]	1000 to 10000 nM	> 10000 nM	–	< 100 nM	–
C[C@H](Nc1nc(N)nc2cccnc12)c1cc2cccc(-c3ccnnc3)c2c(=O)n1-c1ccccc1 [Compound I-79]	1000 to 10000 nM	1000 to 10000 nM	–	< 100 nM	–
CNc1nc(N[C@@H](C)c2cc3cccc(Cl)c3c(=O)n2-c2ccccc2)c2ncccc2n1 [Compound I-96]	1000 to 10000 nM	1000 to 10000 nM	–	< 100 nM	–
